The source of these data is patent US9133224B2, “Macrocyclic kinase inhibitors” (OSI Pharmaceuticals, LLC, priority 2010, dated 2015).

Read-outs that look alike come from different tables or passages of the source.

The target in test [1] is T1, GST-tagged full-length FAK enzyme (PTK2) (Homo sapiens, UniProt Q05397).
T1 construct: GST-tagged full-length FAK enzyme (PTK2, Invitrogen PV4085); GST; purchased Invitrogen PV4085
Kind of test: Biochemical Omnia Assay (FAK). As to the method: Biochemical Omnia Assay Protocol
The Omnia Assay (Invitrogen) has been optimized for GST-tagged full-length FAK enzyme (PTK2, Invitrogen PV4085).
All compound concentrations were assayed in duplicate. Initial compound dilutions were prepared at 100× concentration in 100% DMSO from a 10 mM stock solution. Compounds were further diluted 1:25 in assay buffer resulting in a 4× concentrated solution.
In running the assay, 5 μL of the above 4× concentrated compound solution (or 4% DMSO for positive controls) was added to the assay plate followed by 5 μL of a solution containing peptide (40 μM) and ATP (200 μM) in assay buffer. The reaction was initiated by the addition of 10 μL of FAK (50 nM) in assay buffer, or assay buffer alone for negative controls. The increase in fluorescence due to peptide phosphorylation was monitored continuously as a function of time using a Spectramax M5 plate reader (Molecular Devices) equipped with SoftMax Pro 5.2 software.
IC50 values were determined from the slopes of the linear progress curves by non-linear curve-fitting using GraphPad Prism 5 (GraphPad Software, Inc.).

Another test concerns the target T2, FAK (Homo sapiens, UniProt Q05397).
T2 construct: endogenous in cells; host or cells: U87MG glioblastoma cells (ATCC HTB-14)
Kind of test: Cell-based capture ELISA for inhibition of FAK autophosphorylation [pY397] in U87MG cells. As to the method: Cell-Based Assays for Inhibition of FAK Autophosphorylation: MiaPaCa2 and U87MG
The ability of compounds to inhibit FAK autophosphorylation was determined in a cell-based capture ELISA assay using U87MG glioblastoma cells (ATCC, Cat # HTB-14) and the FAK [pY397]ELISA kit from Invitrogen (KHO0441). The assay determines the ability of compounds to block endogenous autophosphorylation of FAK stimulated by fibronectin. Cells plated on fibronectin coated 96-well plate were incubated with compounds at various concentrations in the complete growth medium for 2 h. Cell lysates were then prepared and FAK protein was captured onto a FAK antibody-coated 96-well ELISA plate. The phosphotyrosine content of FAK protein was then monitored by quantitation of degree of binding of an antibody that recognizes only the phosphorylated FAK at Y397 within the captured protein.
Reagents Provided in Biosource FAK [pY397]
Cultures of U87MG cells growing in MEM (Earles) containing non-essential amino acids, sodium pyruvate (1 mM), […] (1%) and 10% fetal bovine serum were detached by trypsin-EDTA and suspended in cell growth medium. Cells were then plated onto fibronectin (600 ng/well)-coated 96-well flat bottom plates at 1.7×10^4 cells per well in 60 uL cell growth medium and incubated overnight at 37° C. in a CO2 incubator.
Compound dilutions were prepared from 10 mM DMSO stocks by dilution in cell growth medium, the final concentration of DMSO in the assay being 0.6%. […] The cells were then incubated with compounds at 37° C. for 2 h. The medium was removed by aspiration and cells were lysed by addition of 20 uL of ice-cold cell lysis buffer per well. The plates were kept on ice for 20 min and 50 uL of standard diluent was added to each well. 50 uL of cell lysate from each well was transferred to respective wells in an assay plate and 50 uL of detection antibody was added to all wells except H1-H6 which were no antibody control wells. Capture assay plates were incubated overnight in a cold room.
Following incubation of the cell lysates and detection antibodies in the ELISA plate, the wells were washed 4 times with 120 uL of wash buffer (1×), then 100 uL of diluted HRP conjugated antibody (1:100 dil in diluent) was added to each well, and the plate was incubated at RT for 30 min. The wells were then washed for 4 times with 120 uL of wash buffer (1×) and 100 uL of chromogen was added to each well and incubated in the dark at RT for 5-10 min. 100 uL of stop solution was added to each well and the absorbance measured at 450 nm, 0.1 s.
Comparison of the assay signals obtained in the presence of compound with those of positive and negative controls (cells with no compound and no detection antibody being added), allows degree of inhibition of phospho-FAK [Y397] to be determined over a range of compound concentrations. […] The assay as described above was modified to determine the effect of inclusion of 50% (v/v) mouse or human plasma. In this assay, the compound plate was prepared as 2× concentration in 100 uL of 100% mouse or human plasma, and 60 uL of this was added to 60 uL of culture medium and incubated at 37° C. incubator for 2 h. The rest of the assay was carried out as described above.
(An ELISA detects its analyte on a solid surface through an enzyme-linked reagent.)

Setting [2] is: 50% (v/v) human plasma, mean IC50, read-out: FAK Activity Mechanistic (U87MG) HP.
[3] abbreviates: 50% (v/v) mouse plasma, mean IC50, read-out: FAK Activity Mechanistic (U87MG) MP.
The mark [4] stands for this setting: no plasma present, mean IC50, read-out: FAK Activity Mechanistic (U87MG) NP.
The mark [5] stands for this setting: mean IC50, [ATP] = 50uM, read-out: FAK Activity Biochemical OMNIA, [ATP] = 50uM.
Where [6] appears, read: FAK Activity Mechanistic (U87MG) MP, 50% (v/v) mouse plasma, mean IC50.

T1 sequence (Q05397 whole entry): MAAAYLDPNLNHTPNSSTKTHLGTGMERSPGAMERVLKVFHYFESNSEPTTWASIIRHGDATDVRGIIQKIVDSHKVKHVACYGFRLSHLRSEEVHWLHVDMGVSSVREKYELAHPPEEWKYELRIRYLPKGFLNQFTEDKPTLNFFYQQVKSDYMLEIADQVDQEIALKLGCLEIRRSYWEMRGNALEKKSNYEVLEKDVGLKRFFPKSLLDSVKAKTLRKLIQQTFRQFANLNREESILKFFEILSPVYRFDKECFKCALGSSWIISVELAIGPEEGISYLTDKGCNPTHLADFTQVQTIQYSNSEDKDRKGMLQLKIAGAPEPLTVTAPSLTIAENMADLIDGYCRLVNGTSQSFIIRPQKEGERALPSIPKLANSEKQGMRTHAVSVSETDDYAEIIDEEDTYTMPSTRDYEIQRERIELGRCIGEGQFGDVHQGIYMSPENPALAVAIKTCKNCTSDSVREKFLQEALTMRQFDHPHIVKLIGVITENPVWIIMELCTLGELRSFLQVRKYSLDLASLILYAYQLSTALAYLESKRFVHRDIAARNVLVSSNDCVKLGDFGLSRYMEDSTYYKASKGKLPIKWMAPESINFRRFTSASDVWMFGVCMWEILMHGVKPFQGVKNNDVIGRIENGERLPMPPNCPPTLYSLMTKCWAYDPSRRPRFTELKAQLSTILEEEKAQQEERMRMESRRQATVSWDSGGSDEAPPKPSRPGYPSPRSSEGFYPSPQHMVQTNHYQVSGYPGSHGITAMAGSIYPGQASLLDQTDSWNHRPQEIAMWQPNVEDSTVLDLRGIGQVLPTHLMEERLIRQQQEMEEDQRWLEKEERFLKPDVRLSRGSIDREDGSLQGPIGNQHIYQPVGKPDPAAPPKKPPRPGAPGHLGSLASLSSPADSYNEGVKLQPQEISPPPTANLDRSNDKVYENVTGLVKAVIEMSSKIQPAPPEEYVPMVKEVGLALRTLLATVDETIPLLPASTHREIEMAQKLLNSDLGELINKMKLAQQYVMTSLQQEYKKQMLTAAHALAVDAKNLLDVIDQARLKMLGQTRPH
T2 sequence (Q05397 whole entry): as above

Consider `CCOP1(=O)Cc2ccc(c(OC)c2)Nc2ncc(C(F)(F)F)c(n2)Nc2ccc(nc2C(=O)NC)-c2cnn(c2Cl)CCCO1` (racemic) [Example 51], for which the IC50 in test [1] is less than 400 nM; on FAK (setting [2]) it was less than 400 nM; at FAK (setting [3]), 400 to 4000 nM; at FAK (setting [4]), less than 400 nM.

`CCOP1(=O)Cc2ccc(c(OC)c2)Nc2ncc(C(F)(F)F)c(n2)Nc2ccc(c3c2C(=O)N(C)C3)-c2cnn(c2)CCCO1` (racemic) [Example 1]: the IC50 (in test [1]; on FAK (setting [2]); on FAK (setting [4])) was less than 400 nM each time.

For `CCOP1(=O)Cc2ccc(c(OC)c2)Nc2ncc(C(F)(F)F)c(n2)Nc2ccc(nc2C(=O)NC)-c2cnn(c2C)CCCO1` (single isomer, unassigned) [Example 35B], the IC50 (in test [1] (setting [5]); on FAK (setting [2]); on FAK (setting [4])) was less than 400 nM in each case.

Consider `CCNC(=O)c1nc2ccc1Nc1nc(ncc1C(F)(F)F)Nc1ccc(cc1OC)CP(=O)(OCC)OCC1(COC1)Cn1cc-2cn1` (racemic) [Example 45], for which the IC50 (in test [1]; at FAK (setting [2]); on FAK (setting [4])) was less than 400 nM in each case.

In the case of `CNC(=O)c1nc2ccc1Nc1nc(ncc1C(F)(F)F)Nc1ccc(cc1OC)CP(=O)(C(C)C)OCCCn1cc-2cn1` (single isomer, unassigned) [Example 68B], the IC50 (in test [1] (setting [5]); at FAK (setting [2]); on FAK (setting [3]); at FAK (setting [4])) was less than 400 nM in each case.

As to `CCOP1(=O)Cc2ccc(c(OC)c2)Nc2ncc(C(F)(F)F)c(n2)Nc2ccc(cc2C(=O)NOC)-c2cnn(c2)CCCO1` (racemic) [Example 26], the IC50 is less than 400 nM in test [1] (setting [5]), less than 400 nM on FAK (setting [2]), 400 to 4000 nM at FAK (setting [3]) and less than 400 nM on FAK (setting [4]).

As for `CCOP1(=O)Cc2ccc(c(Br)c2)Nc2ncc(C(F)(F)F)c(n2)Nc2ccc(nc2C(=O)NC)-c2cnn(c2)CCCO1` (racemic) [Example 32], the IC50 (in test [1] (setting [5]); on FAK (setting [2]); at FAK (setting [4])) was less than 400 nM throughout.

In the case of `CCOP1(=O)Cc2ccc(c(OC)c2)Nc2ncc(C(F)(F)F)c(n2)Nc2ccc(nc2C(=O)NC)-c2cnn(c2)CCCCO1` (racemic) [Example 15], the IC50 (in test [1]; at FAK (setting [2]); on FAK (setting [4])) was less than 400 nM throughout.

`CCOP1(=O)Cc2ccc(cc2)Nc2ncc(C(F)(F)F)c(n2)Nc2ccc(cc2C(=O)NC)-c2cnn(c2)CCCO1` (racemic) [Example 8]: the IC50 (in test [1]; on FAK (setting [2]); at FAK (setting [4])) was less than 400 nM in each case.

As to `CCOP1(=O)Cc2ccc(c(OC)c2)Nc2ncc(C(F)(F)F)c(n2)Nc2ccc(nc2C(=O)NC)-c2cc(C(=O)NC)n(c2)CCCO1` (racemic) [Example 42], the IC50 was less than 400 nM in test [1], less than 400 nM at FAK (setting [2]), 400 to 4000 nM against FAK (setting [6]) and less than 400 nM on FAK (setting [4]).

For the compound `CCOP1(=O)Cc2ccc(cc2)Nc2ncc(C(F)(F)F)c(n2)Nc2ccc(nc2C(=O)NC)-c2cnn(c2)CCCO1` (racemic) [Example 13], the IC50 (in test [1] (setting [5]); on FAK (setting [2]); at FAK (setting [4])) was less than 400 nM throughout.

As to `CCOP1(=O)Cc2ccc(c(OC)c2)Nc2ncc(C(F)(F)F)c(n2)Nc2ccc(nc2C(=O)NC)-c2cn(nc2C)CC2(COC2)CO1` (single isomer, unassigned) [Example 60A], the IC50 (in test [1]; on FAK (setting [2]); on FAK (setting [4])) was less than 400 nM each time.

As to `CCOP1(=O)Cc2ccc(c(OC)c2)Nc2ncc(C(F)(F)F)c(n2)Nc2ccc(nc2C(=O)NC)-c2cc(C(=O)O)n(c2)CCCO1` (racemic) [Example 39], the IC50 was less than 400 nM in test [1], greater than 4000 nM on FAK (setting [6]) and 400 to 4000 nM on FAK (setting [4]).

`CNC(=O)c1nc2ccc1Nc1nc(ncc1C(F)(F)F)Nc1ccc(cc1OC)CP(C)(=O)OCCCn1cc-2cn1` (single isomer, unassigned) [Example 61A]: the IC50 (in test [1] (setting [5]); at FAK (setting [2]); on FAK (setting [3]); at FAK (setting [4])) was less than 400 nM throughout.
